Tests used:
in vitro = conditions: human, Caco-2, pH 7.4, Papp
physchem [1] = assay: physchem
physchem [2] = assay: physchem; remark: listed apart in the source
in vivo [3] = conditions: C57BL/6, mouse, brain, iv
in vivo [4] = conditions: C57BL/6, mouse, brain and plasma, iv
in vivo [5] = conditions: C57BL/6, mouse, plasma, iv
in vivo [6] = conditions: C57BL/6, mouse, brain and plasma, iv; remark: listed apart in the source
in vivo [7] = conditions: C57BL/6, mouse, plasma, po
in vivo [8] = conditions: C57BL/6, mouse, brain, po
in vivo [9] = conditions: C57BL/6, mouse, brain and plasma, po
in vivo [10] = conditions: C57BL/6, mouse, brain and plasma, po; remark: listed apart in the source

| Papp A→B at 10 µM (in vitro) [×10⁻⁶ cm/s] | pKa (physchem [1]) | chromatographic logD (physchem [2]) | SMILES | also measured |
| --- | --- | --- | --- | --- |
| 17 | 8.2 | 1.8 | CC1(c2cccc(-c3cccnc3)c2)N=C(N)c2ccccc2O1 (stereo not given) |  |
| 2.1 | 9.3 | 3.3 | CC1(c2cccc(-c3cccc(Cl)c3)c2)N=C(N)CCO1 (stereo not given) |  |
| 5.2 | 9.3 | 2.5 | COc1cccc(-c2cccc(C3(C)N=C(N)CCS3)c2)c1 (stereo not given) |  |
| 72 | 7 | 2.5 | COc1cccc(-c2cccc(C3(C)CCSC(N)=N3)c2)c1 (stereo not given) | fraction unbound at […] (in vivo [7]): 0.07; fraction unbound at […] (in vivo [8]): 0.005; Kp uu at […] (in vivo [9]): 0.64; Kp at […] (in vivo [10]): 8.9 |
| 18 | 8 | 2 | COc1ccc(C2(c3cccc(-c4cncnc4)c3)N=C(N)c3nc(C)sc32)cc1 (stereo not given) | fraction unbound at […] (in vivo [7]): 0.1; fraction unbound at […] (in vivo [8]): 0.02; Kp uu at […] (in vivo [9]): 0.04; Kp at […] (in vivo [10]): 0.2 |
| 30 | 5.4 | 2.3 | COc1ccc(C2(c3cccc(-c4cncnc4)c3)N=C(N)n3nc(C)cc32)cc1 (stereo not given) |  |
| 15 | 6.9 | 3.6 | COc1cccc(-c2cccc(C3(C)N=C(N)CS3)c2)c1 (stereo not given) |  |
| < 0.3 | 10 | 0.9 | COc1ccc(C2(c3cccc(-c4cncnc4)c3)CCC(N)=N2)cc1 (stereo not given) |  |
| 31 | 8.1 | 1.2 | CC1(c2cccc(-c3cncnc3)c2)N=C(N)c2ccccc2O1 (stereo not given) |  |

Second part, the molecule before the results:

| SMILES | Papp A→B at 10 µM (in vitro) [×10⁻⁶ cm/s] | pKa (physchem [1]) | chromatographic logD (physchem [2]) | also measured |
| --- | --- | --- | --- | --- |
| CCC1(c2cccc(-c3cncnc3)c2)N=C(N)c2ccccc2O1 (stereo not given) |  | 8.4 | 1.8 |  |
| CC1(c2cccc(-c3cncnc3)c2)N=C(N)c2c(F)cccc2O1 (stereo not given) | 39 | 6.9 | 1.6 |  |
| CC1(c2cccc(-c3cccnc3)c2)N=C(N)c2c(F)cccc2O1 (stereo not given) | 23 | 7 | 2.3 |  |
| CC1(c2cccc(-c3cncnc3)c2)N=C(N)c2ccccc2S1 (stereo not given) | 39 | 8.3 | 1.7 |  |
| COc1cccc(-c2cccc(C3(C)N=C(N)CCO3)c2)c1 (stereo not given) | 13 | 9.3 | 2.5 |  |
| CC1(c2cccc(-c3cncnc3)c2)N=C(N)CCS1 (stereo not given) | 21 | 9.1 | < 0 | fraction unbound at […] (in vivo [3]): 0.074; Kp uu at […] (in vivo [4]): 0.27; fraction unbound at […] (in vivo [5]): 0.89; Kp at […] (in vivo [6]): 1.4 |
| COc1cccc(-c2cccc(C3(C)COCC(N)=N3)c2)c1 (stereo not given) | 20 | 9.8 | 2.1 |  |
| COc1cccc(-c2cccc(C3(C)CSCC(N)=N3)c2)c1 (stereo not given) |  | 10.5 |  |  |
| COc1ccc(C2(c3cccc(-c4cccnc4)c3)N=C(N)CS2)cc1 (stereo not given) | 19 | 6.2 | 2.9 | fraction unbound at […] (in vivo [3]): 0.01; Kp uu at […] (in vivo [4]): 1.3; fraction unbound at […] (in vivo [5]): 0.007; Kp at […] (in vivo [6]): 0.9 |
| COc1cccc(-c2cccc(C3(c4ccncc4)N=C(N)CS3)c2)c1 (stereo not given) |  | 5.4 |  |  |
| COc1cccc(-c2cccc(C3(C)N=C(N)CN3C(C)=O)c2)c1 (stereo not given) | 16 | 6.5 | 1.4 |  |
| C[C@]1(c2cccc(-c3cncc(F)c3)c2)N=C(N)[C@@H]2CCCCN21 (relative stereo) |  |  | 1.5 |  |
| C[C@]1(c2cccc(-c3cncc(F)c3)c2)N=C(N)[C@H]2CCCCN21 (relative stereo) |  | 9.2 | 2 |  |
| COc1ccc(C2(c3cccc(-c4cccnc4)c3)CC(OC)C(N)=N2)cc1 (stereo in doubt; form 4) |  |  | 1.8 |  |

Source: ChEMBL document CHEMBL2380236, “Core refinement toward permeable β-secretase (BACE-1) inhibitors with low hERG activity” (J Med Chem, 2013)
